Tests used:
[1] = tested on: ER-positive MCF-7 human breast cancer cells; test: MCF-7 human breast cancer xenografts in athymic nude mice, tumor volume; format: in vivo; details: wild type MCF-7 xenografts, treatment from day 17, FIG. 2A; growth eventually resumes (Tam^R)
Description: The present inventors have developed an in vivo experimental model of tamoxifen resistance and resistance to estrogen deprivation in which ER-positive MCF-7 human breast cancer cells are inoculated subcutaneously into athymic nude mice [Osborne et al., 1987, Eur J Cancer Clin Oncol. 23(8):1189-1196; Osborne et al., 1991, J Natl Cancer Inst. 83(20):1477-1482]. […] This sequence of events is similar to that which occurs in patients. […] Since certain metabolites of tamoxifen have estrogenic properties, pharmacologic explanations for this tamoxifen-stimulated growth were investigated first.
ER-positive MCF-7 human breast cancer cells were grown as xenografts in athymic nude mice as described previously [Osborne et al., 1987, Eur J Cancer Clin Oncol. 23(8):1189-1196; Osborne et al., 1991, J Natl Cancer Inst. 83(20):1477-1482; Osborne et al., 1995, J Natl Cancer Inst 87:746-750]. Day 0 was the day of transplantation conducted and the day estrogen treatment began. These mice were treated with estrogen withdrawal (−E2) or tamoxifen (Tam) beginning on day 17. Tumor volume was measure every four days.

[2] = tested on: ER-positive MCF-7 human breast cancer cells; details: literature (Osborne et al., 1995), cited from earlier work
[3] = biological target: p38β (Homo sapiens, UniProt Q15759); test: In vitro kinase assay of Example 3: p38β-induced phosphorylation of ER; format: biochemical; details: ERα and ERβ substrates
[4] = tested on: p38 MAPK; test: In vitro phosphorylation of Xenopus oocyte-expressed AIB1 by p38 MAPK; format: biochemical; details: Xenopus oocyte-expressed AIB1, FIG. 4 lane 4
[5] = tested on: p38 MAPK; details: baculovirus-expressed ERα, FIG. 3A

p38β, sequence (Q15759 whole entry): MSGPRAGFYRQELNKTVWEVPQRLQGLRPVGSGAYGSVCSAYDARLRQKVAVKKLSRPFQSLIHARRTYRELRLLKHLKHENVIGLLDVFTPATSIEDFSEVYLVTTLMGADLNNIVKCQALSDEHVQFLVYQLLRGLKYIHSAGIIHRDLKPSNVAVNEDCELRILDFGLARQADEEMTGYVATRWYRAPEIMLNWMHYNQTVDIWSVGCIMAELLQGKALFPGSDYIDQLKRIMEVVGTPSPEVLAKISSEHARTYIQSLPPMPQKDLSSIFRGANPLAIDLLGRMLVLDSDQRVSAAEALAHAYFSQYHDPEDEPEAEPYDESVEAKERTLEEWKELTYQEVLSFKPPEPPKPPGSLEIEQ

## CC/C(=C(\c1ccccc1)c1ccc(OCCN(C)C)cc1)c1ccccc1 [tamoxifen]
[1]
  xenografted tumor growth (tumor volume over time): suppresses tumor growth for several months
[2]; tumor growth later resumes despite continued treatment
  tumor growth in MCF-7 xenograft model: suppresses tumor growth for several months

## C[C@]12CC[C@@H]3c4ccc(O)cc4C[C@@H](CCCCCCCCC[S+]([O-])CCCC(F)(F)C(F)(F)F)[C@H]3[C@@H]1CC[C@@H]2O (stereo partly drawn) [ICI 182,780]
[2]; resistant xenograft tumors
  growth of −E2^R and Tam^R resistant tumors: can still be inhibited

## C[S+]([O-])c1ccc(-c2nc(-c3ccncc3)c(-c3ccc(F)cc3)[nH]2)cc1 (stereo not drawn) [SB 203580]
[3]
  p38β-induced phosphorylation of ER: can be inhibited
[4]
  AIB1 phosphorylation by p38 MAPK: inhibits AIBI phosphorylation
[5]
  phosphorylation of ERα by p38 MAP kinase in the presence of inhibitor: inhibited
